Results as given in patent US20260231994A1, “TASTE-ENHANCING COMPOSITION, METHOD FOR PRODUCING SAME, FOOD PRODUCT, AND METHOD FOR ENHANCING TASTE OF FOOD PRODUCT” (HOUSE FOODS GROUP INC., priority 2023, published 2026).

Legend:
Assay type in all cases: in vivo
[1] = Experiment 6 sensory evaluation of cyclic dipeptides, “top sharp saltiness”
How it was run: (§1)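 Reduced-sodium curry roux (44 g in 300 g hot water) was spiked with cyclic dipeptide solutions matching heat-treated coriander or paprika levels, at 0.5% or 1.0% (w/w) final. Three evaluators scored each sample against unspiked reduced-sodium and common roux. Mean scores were graded F to AA.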

[2] = Experiment 6 sensory evaluation of cyclic dipeptides, “middle fullness (enhanced thickness)”
How it was run: as §1

[3] = Experiment 6 sensory evaluation of cyclic dipeptides, “boosting of last flavor (aftertaste)”
How it was run: as §1

[4] = Additive amount coriander 0.5% (heat-treated coriander equivalent aqueous solution, final 0.5% (w/w)), reduced-sodium curry roux
[5] = Additive amount coriander 0.5%, reduced-sodium curry roux
[6] = heat-treated coriander equivalent aqueous solution of cyclic dipeptide, final 1.0% (w/w) in reduced-sodium curry roux dispersion
[7] = heat-treated coriander equivalent aqueous solution of cyclic dipeptide, final 1.0% (w/w) in reduced-sodium curry roux dispersion, 3 evaluators
[8] = Additive amount paprika 0.5% (heat-treated paprika equivalent aqueous solution, final 0.5% (w/w)), reduced-sodium curry roux
[9] = Additive amount paprika 0.5%, reduced-sodium curry roux
[10] = heat-treated paprika equivalent aqueous solution of cyclic dipeptide, final 1.0% (w/w) in reduced-sodium curry roux dispersion
[11] = heat-treated paprika equivalent aqueous solution of cyclic dipeptide, final 1.0% (w/w) in reduced-sodium curry roux dispersion, 3 evaluators

## cyclic (Tyr-His) [Coriander ID 50]
[1]; [4]
  Top sharp saltiness Average: 2.3 points
[1]; [5]
  Top sharp saltiness Evaluation: B (“B” when it was 2.0 or higher and 2.5 or lower)
[1]; [6]
  Top sharp saltiness Evaluation: AA (“AA” when it was 3.0 or higher)
[1]; [7]
  Top sharp saltiness Average: 3.3 points
[2]; [5]
  Middle fullness Average: 2.5 points
  Middle fullness Evaluation: B (“B” when it was 2.0 or higher and 2.5 or lower)
[2]; [6]
  Middle fullness Evaluation: AA (“AA” when it was 3.0 or higher)
[2]; [7]
  Middle fullness Average: 3.3 points
[3]; [5]
  Bosting of last flavor Average: 2.8 points
  Bosting of last flavor Evaluation: A (“A” when it was 2.6 or higher and 2.9 or lower)
[3]; [6]
  Bosting of last flavor Evaluation: AA (“AA” when it was 3.0 or higher)
[3]; [7]
  Bosting of last flavor Average: 3.0 points

## cyclic (Val-Arg) [Coriander ID 20]
[1]; [4]
  Top sharp saltiness Average: 2.7 points
[1]; [5]
  Top sharp saltiness Evaluation: A (“A” when it was 2.6 or higher and 2.9 or lower)
[1]; [6]
  Top sharp saltiness Evaluation: C (“C” when it was 1.1 or higher and 1.9 or lower)
[1]; [7]
  Top sharp saltiness Average: 1.7 points
[2]; [5]
  Middle fullness Average: 3.3 points
  Middle fullness Evaluation: AA (“AA” when it was 3.0 or higher)
[2]; [6]
  Middle fullness Evaluation: B (“B” when it was 2.0 or higher and 2.5 or lower)
[2]; [7]
  Middle fullness Average: 2.0 points
[3]; [5]
  Bosting of last flavor Average: 3.7 points
  Bosting of last flavor Evaluation: AA (“AA” when it was 3.0 or higher)
[3]; [6]
  Bosting of last flavor Evaluation: B (“B” when it was 2.0 or higher and 2.5 or lower)
[3]; [7]
  Bosting of last flavor Average: 2.2 points

## cyclic (Val-Phe) [Coriander ID 38]
[1]; [8]
  Top sharp saltiness Average: 2.8 points
[1]; [9]
  Top sharp saltiness Evaluation: A (“A” when it was 2.6 or higher and 2.9 or lower)
[1]; [10]
  Top sharp saltiness Evaluation: A (“A” when it was 2.6 or higher and 2.9 or lower)
[1]; [11]
  Top sharp saltiness Average: 2.8 points
[2]; [9]
  Middle fullness Average: 3.2 points
  Middle fullness Evaluation: AA (“AA” when it was 3.0 or higher)
[2]; [10]
  Middle fullness Evaluation: A (“A” when it was 2.6 or higher and 2.9 or lower)
[2]; [11]
  Middle fullness Average: 2.8 points
[3]; [9]
  Bosting of last flavor Average: 3.3 points
  Bosting of last flavor Evaluation: AA (“AA” when it was 3.0 or higher)
[3]; [10]
  Bosting of last flavor Evaluation: AA (“AA” when it was 3.0 or higher)
[3]; [11]
  Bosting of last flavor Average: 3.2 points

## cyclic (Val-Ser) [Coriander ID 59]
[1]; [8]
  Top sharp saltiness Average: 2.5 points
[1]; [9]
  Top sharp saltiness Evaluation: B (“B” when it was 2.0 or higher and 2.5 or lower)
[1]; [10]
  Top sharp saltiness Evaluation: C (“C” when it was 1.1 or higher and 1.9 or lower)
[1]; [11]
  Top sharp saltiness Average: 1.8 points
[2]; [9]
  Middle fullness Average: 2.7 points
  Middle fullness Evaluation: A (“A” when it was 2.6 or higher and 2.9 or lower)
[2]; [10]
  Middle fullness Evaluation: B (“B” when it was 2.0 or higher and 2.5 or lower)
[2]; [11]
  Middle fullness Average: 2.2 points
[3]; [9]
  Bosting of last flavor Average: 2.7 points
  Bosting of last flavor Evaluation: A (“A” when it was 2.6 or higher and 2.9 or lower)
[3]; [10]
  Bosting of last flavor Evaluation: A (“A” when it was 2.6 or higher and 2.9 or lower)
[3]; [11]
  Bosting of last flavor Average: 2.8 points

## cyclic (Val-Tyr) [Coriander ID 35]
[1]; [8]
  Top sharp saltiness Average: 1.8 points
[1]; [9]
  Top sharp saltiness Evaluation: C (“C” when it was 1.1 or higher and 1.9 or lower)
[1]; [10]
  Top sharp saltiness Evaluation: B (“B” when it was 2.0 or higher and 2.5 or lower)
[1]; [11]
  Top sharp saltiness Average: 2.3 points
[2]; [9]
  Middle fullness Average: 2.2 points
  Middle fullness Evaluation: B (“B” when it was 2.0 or higher and 2.5 or lower)
[2]; [10]
  Middle fullness Evaluation: B (“B” when it was 2.0 or higher and 2.5 or lower)
[2]; [11]
  Middle fullness Average: 2.2 points
[3]; [9]
  Bosting of last flavor Average: 1.8 points
  Bosting of last flavor Evaluation: C (“C” when it was 1.1 or higher and 1.9 or lower)
[3]; [10]
  Bosting of last flavor Evaluation: B (“B” when it was 2.0 or higher and 2.5 or lower)
[3]; [11]
  Bosting of last flavor Average: 2.3 points
